Laboratory results taken from US20260022142A1, “MACROCYCLIC IMMUNOMODULATORS” (Bristol-Myers Squibb Company, priority 2022, published 2026).
Numbered stars: 1 amine (or outer) side, 2 acyl side, 3 side chain; on linkers, the order of the positions; unused ones are H or OH. Bridge positions count the residues as written; N and C are the ends. Square brackets hold non-standard residues; d marks the D form. Peptide text beside a SMILES is read from it. * marks the point of attachment. ξ: configuration not given here. Phe(4-COOH) = N[C@@H](Cc1ccc(C(=O)O)cc1)C(=O)O; Bip = N[C@@H](Cc1ccc(-c2ccccc2)cc1)C(=O)O; Phe(3-Me) = Cc1cccc(C[C@H](N)C(=O)O)c1; βAsp = O=C(O)[C@H](CC(=O)[*:2])N[*:1]; Val(3-OH) = CC(C)(O)[C@H](N)C(=O)O; hArg = N=C(N)NCCCC[C@H](N)C(=O)O; 4Pal = N[C@@H](Cc1ccncc1)C(=O)O; Cha = N[C@@H](CC1CCCCC1)C(=O)O; Cit = NC(=O)NCCC[C@H](N)C(=O)O; Thr(3ξ) = CC(O)[C@H](N)C(=O)O; Phg = N[C@H](C(=O)O)c1ccccc1; Tle = CC(C)(C)[C@H](N)C(=O)O; Carboxymethyl = O=C(O)C*; Orn = NCCC[C@H](N)C(=O)O; Aun = NCCCCCCCCCCC(=O)O; Dab = NCC[C@H](N)C(=O)O; Dap = NC[C@H](N)C(=O)O; AEEA = NCCOCCOCC(=O)O

Biological target: T1, PD-1/PD-L1 interaction (PE-labeled human PD-L1-Ig binding to Jurkat cell line over-expressing human PD-1) (Homo sapiens, UniProt Q15116)
T1 construct: expressed in transfected cells; host or cells: Jurkat
T1 sequence (Q15116 25-288): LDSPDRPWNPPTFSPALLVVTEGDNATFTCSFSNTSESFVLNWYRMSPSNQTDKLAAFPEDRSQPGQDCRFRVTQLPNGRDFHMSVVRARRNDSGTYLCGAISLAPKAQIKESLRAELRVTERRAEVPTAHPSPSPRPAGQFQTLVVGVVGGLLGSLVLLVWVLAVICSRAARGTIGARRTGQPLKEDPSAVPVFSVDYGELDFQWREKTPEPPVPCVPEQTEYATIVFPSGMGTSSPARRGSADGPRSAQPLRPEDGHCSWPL
Experiment: Jurkat-PD-1 Cell Binding High-Content Screening Assay (CBA)
Type: cell-based
Conditions: Jurkat cell line over-expressing human PD-1; PE-labeled PD-L1-Ig 20 nM final; read-out: Jurkat hPD1-PDL1 IC50
Outline: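 Jurkat cells over-expressing human PD-1 (8×10^3 per well, DMEM/10% FCS) preincubated with compound 2 h at 37° C, then PE-labeled human PD-L1-Ig (20 nM final) added for 1 h. Cells fixed with paraformaldehyde, Hoechst-stained, and bound fluorescence quantified by high-content imaging.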

Structure (SMILES)	IC50
Cc1cccc(C[C@@H]2NC(=O)[C@H](CC(=O)O)NC(=O)[C@H](Cc3ccc(OCC(=O)O)cc3)NC(=O)[C@H](Cc3ccncc3)NC(=O)CSC[C@@H](C(=O)N[C@@H](CCN)C(=O)NCCOCCOCC(=O)NCCCCCCCCCCC(=O)O)NC(=O)[C@H](CN)NC(=O)[C@H](C(C)(C)O)NC(=O)[C@H](CC3CCCCC3)NC(=O)[C@H](CCN)NC(=O)[C@@H](CC(C)C)NC(=O)[C@H](CCCN)NC(=O)[C@H](Cc3ccc(OCC(=O)O)cc3)NC(=O)[C@H](Cc3ccc(-c4ccccc4)cc3)NC(=O)[C@H](Cc3ccc(OCC(=O)O)cc3)NC2=O)c1 [Compound 2022] ({CH2CO}-[4Pal]Y(Carboxymethyl)D[Phe(3-Me)]Y(Carboxymethyl)[Bip]Y(Carboxymethyl)[Orn][dL][Dab][Cha][Val(3-OH)][Dap]C[Dab][AEEA][Aun]-OH; thioether N-14)	59.5 nM
CC(C)C[C@H]1NC(=O)[C@H](CCCN)NC(=O)[C@H](C(C)C)NC(=O)[C@H](Cc2ccc(-c3ccccc3)cc2)NC(=O)[C@H](C(C)C)NC(=O)[C@H](Cc2c[nH]c3ccccc23)NC(=O)[C@H](CC(=O)O)NC(=O)[C@H](Cc2ccc(C(=O)O)cc2)NC(=O)[C@H](Cc2ccc(OCC(=O)O)cc2)NC(=O)CSC[C@@H](C(=O)NCCOCCOCC(=O)NCCCCCCCCCCC(=O)O)NC(=O)[C@H](CCCCN)NC(=O)[C@H](C(C)C)NC(=O)[C@H](CC2CCCCC2)NC(=O)[C@H](CCN)NC1=O [Compound 2563] ({CH2CO}-Y(Carboxymethyl)[Phe(4-COOH)]DWV[Bip]V[Orn][dL][Dab][Cha]VKC[AEEA][Aun]-OH; thioether N-14)	29.3 nM
CC(C)C[C@H]1NC(=O)[C@H](CCCN)NC(=O)[C@H](C(C)C)NC(=O)[C@H](Cc2ccc(-c3ccccc3)cc2)NC(=O)[C@H](C(C)C)NC(=O)[C@H](Cc2c[nH]c3ccccc23)NC(=O)[C@H](CC(=O)O)NC(=O)[C@H](Cc2ccc(OCC(=O)O)cc2)NC(=O)[C@H](CCCCNC(=N)N)NC(=O)CSC[C@@H](C(=O)N[C@@H](CCN)C(=O)NCCOCCOCC(=O)NCCCCCCCCCCC(=O)O)NC(=O)[C@H](CCN)NC(=O)[C@H](C(C)C)NC(=O)[C@H](CC2CCCCC2)NC(=O)[C@H](CC(N)=O)NC1=O [Compound 3215] ({CH2CO}-[hArg]Y(Carboxymethyl)DWV[Bip]V[Orn][dL]N[Cha]V[Dab]C[Dab][AEEA][Aun]-OH; thioether N-14)	25.3 nM
Cc1cccc(C[C@@H]2NC(=O)[C@H](CC(=O)O)NC(=O)[C@H](Cc3ccc(OCC(=O)O)cc3)NC(=O)[C@H](CN)NC(=O)CSC[C@@H](C(=O)N[C@@H](CCN)C(=O)NCCCCCCCCCCC(=O)O)NC(=O)[C@H]([C@@H](C)O)NC(=O)[C@H](C(C)C)NC(=O)[C@H](CC3CCCCC3)NC(=O)[C@H](CCN)NC(=O)[C@@H](CC(C)C)NC(=O)[C@H](CCCN)NC(=O)[C@H](CCC(N)=O)NC(=O)[C@H](Cc3ccc(-c4ccccc4)cc3)NC(=O)[C@H](C(C)C)NC2=O)c1 [Compound 2847] ({CH2CO}-[Dap]Y(Carboxymethyl)D[Phe(3-Me)]V[Bip]Q[Orn][dL][Dab][Cha]VTC[Dab][Aun]-OH; thioether N-14)	20.5 nM
Cc1cccc(C[C@@H]2NC(=O)[C@H](CC(=O)O)NC(=O)[C@H](Cc3ccc(OCC(=O)O)cc3)NC(=O)[C@H](CN)NC(=O)CSC[C@@H](C(=O)N[C@@H](CCN)C(=O)NCCCCCCCCCCC(=O)O)NC(=O)[C@H](CO)NC(=O)[C@H](C(C)C)NC(=O)[C@H](CC3CCCCC3)NC(=O)[C@H](CCN)NC(=O)[C@@H](CC(C)C)NC(=O)[C@H](CCCN)NC(=O)[C@H](Cc3ccc(O)cc3)NC(=O)[C@H](Cc3ccc(-c4ccccc4)cc3)NC(=O)[C@H](C(C)C)NC2=O)c1 [Compound 2718] ({CH2CO}-[Dap]Y(Carboxymethyl)D[Phe(3-Me)]V[Bip]Y[Orn][dL][Dab][Cha]VSC[Dab][Aun]-OH; thioether N-14)	31.3 nM
Cc1cccc(C[C@@H]2NC(=O)[C@H](CC(=O)O)NC(=O)[C@H](Cc3ccc(OCC(=O)O)cc3)NC(=O)[C@H](Cc3ccncc3)NC(=O)CSC[C@@H](C(=O)N[C@@H](CCN)C(=O)NCCCCCCCCCCC(=O)O)NC(=O)[C@H](CO)NC(=O)[C@H](C(C)(C)O)NC(=O)[C@H](CC3CCCCC3)NC(=O)[C@H](CCN)NC(=O)[C@@H](CC(C)C)NC(=O)[C@H](CCCN)NC(=O)[C@H](Cc3ccc(OCC(=O)O)cc3)NC(=O)[C@H](Cc3ccc(-c4ccccc4)cc3)NC(=O)[C@H](c3ccccc3)NC2=O)c1 [Compound 2191] ({CH2CO}-[4Pal]Y(Carboxymethyl)D[Phe(3-Me)][Phg][Bip]Y(Carboxymethyl)[Orn][dL][Dab][Cha][Val(3-OH)]SC[Dab][Aun]-OH; thioether N-14)	20 nM

Stronger by IC50, values ahead:

IC50	Structure (SMILES)
18.1 nM	Cc1cccc(C[C@@H]2NC(=O)[C@H](CC(=O)O)NC(=O)[C@H](Cc3ccc(OCC(=O)O)cc3)NC(=O)[C@H](CN)NC(=O)CSC[C@@H](C(=O)N[C@@H](CCN)C(=O)NCCCCCCCCCCC(=O)O)NC(=O)[C@H]([C@@H](C)O)NC(=O)[C@H](C(C)(C)C)NC(=O)[C@H](CC3CCCCC3)NC(=O)[C@H](CCN)NC(=O)[C@@H](CC(C)C)NC(=O)[C@H](CCCN)NC(=O)[C@H](CCCNC(N)=O)NC(=O)[C@H](Cc3ccc(-c4ccccc4)cc3)NC(=O)[C@H](C(C)C)NC2=O)c1 [Compound 2840] ({CH2CO}-[Dap]Y(Carboxymethyl)D[Phe(3-Me)]V[Bip][Cit][Orn][dL][Dab][Cha][Tle]TC[Dab][Aun]-OH; thioether N-14)
17.4 nM	Cc1cccc(C[C@@H]2NC(=O)[C@H](CC(=O)O)NC(=O)[C@H](Cc3ccc(OCC(=O)O)cc3)NC(=O)[C@H](CCCNC(=N)N)NC(=O)CSC[C@@H](C(=O)N[C@@H](CCN)C(=O)NCCCCCCCCCCC(=O)O)NC(=O)[C@H](C(C)O)NC(=O)[C@H](C(C)C)NC(=O)[C@H](CC3CCCCC3)NC(=O)[C@H](CCN)NC(=O)[C@@H](CC(C)C)NC(=O)[C@H](CCCN)NC(=O)[C@H](CCCNC(N)=O)NC(=O)[C@H](Cc3ccc(-c4ccccc4)cc3)NC(=O)[C@H](C(C)C)NC2=O)c1 (stereo partly drawn) [Compound 3301] ({CH2CO}-RY(Carboxymethyl)D[Phe(3-Me)]V[Bip][Cit][Orn][dL][Dab][Cha]V[Thr(3ξ)]C[Dab][Aun]-OH; thioether N-14)
7.9 nM	Cc1cccc(C[C@@H]2NC(=O)[C@H](CC(=O)O)NC(=O)[C@H](Cc3ccc(OCC(=O)O)cc3)NC(=O)[C@H](CN)NC(=O)CSC[C@@H](C(=O)N[C@@H](C)C(=O)N[C@@H](CC(=O)NCCCCCCCCCCC(=O)O)C(=O)O)NC(=O)[C@H]([C@@H](C)O)NC(=O)[C@H](C(C)C)NC(=O)[C@H](CC3CCCCC3)NC(=O)[C@H](CCN)NC(=O)[C@@H](CC(C)C)NC(=O)[C@H](CCCN)NC(=O)[C@H](CCCNC(N)=O)NC(=O)[C@H](Cc3ccc(-c4ccccc4)cc3)NC(=O)[C@H](C(C)C)NC2=O)c1 [Compound 1023] ({CH2CO}-[Dap]Y(Carboxymethyl)D[Phe(3-Me)]V[Bip][Cit][Orn][dL][Dab][Cha]VTCA[βAsp][Aun]-OH; thioether N-14)
9.4 nM	Cc1cccc(C[C@@H]2NC(=O)[C@H](CC(=O)O)NC(=O)[C@H](Cc3ccc(OCC(=O)O)cc3)NC(=O)[C@H](CN)NC(=O)CSC[C@@H](C(=O)NCCOCCOCC(=O)NCCCCCCCCCCC(=O)O)NC(=O)[C@H](CN)NC(=O)[C@H](C(C)C)NC(=O)[C@H](CC3CCCCC3)NC(=O)[C@H](CCN)NC(=O)[C@@H](CC(C)C)NC(=O)[C@H](CCCN)NC(=O)[C@H](C(C)C)NC(=O)[C@H](Cc3ccc(-c4ccccc4)cc3)NC(=O)[C@H](C(C)C)NC2=O)c1 [Compound 2566] ({CH2CO}-[Dap]Y(Carboxymethyl)D[Phe(3-Me)]V[Bip]V[Orn][dL][Dab][Cha]V[Dap]C[AEEA][Aun]-OH; thioether N-14)
